From publication PMC10023787, “Trio-pharmacophore DNA-encoded chemical library for simultaneous selection of fragments and linkers” (Nature Communications, 2023)

Experiments:
[1] = target: T1, MMP-2 (Homo sapiens, UniProt P08253); assay: MMP-2 inhibition assay (fluorogenic peptide substrate); format: biochemical; settings: for remaining activity (%): MMP-2
T1 construct: purchased Sino Biological 10082-HNAH
T1 sequence (P08253 110-660): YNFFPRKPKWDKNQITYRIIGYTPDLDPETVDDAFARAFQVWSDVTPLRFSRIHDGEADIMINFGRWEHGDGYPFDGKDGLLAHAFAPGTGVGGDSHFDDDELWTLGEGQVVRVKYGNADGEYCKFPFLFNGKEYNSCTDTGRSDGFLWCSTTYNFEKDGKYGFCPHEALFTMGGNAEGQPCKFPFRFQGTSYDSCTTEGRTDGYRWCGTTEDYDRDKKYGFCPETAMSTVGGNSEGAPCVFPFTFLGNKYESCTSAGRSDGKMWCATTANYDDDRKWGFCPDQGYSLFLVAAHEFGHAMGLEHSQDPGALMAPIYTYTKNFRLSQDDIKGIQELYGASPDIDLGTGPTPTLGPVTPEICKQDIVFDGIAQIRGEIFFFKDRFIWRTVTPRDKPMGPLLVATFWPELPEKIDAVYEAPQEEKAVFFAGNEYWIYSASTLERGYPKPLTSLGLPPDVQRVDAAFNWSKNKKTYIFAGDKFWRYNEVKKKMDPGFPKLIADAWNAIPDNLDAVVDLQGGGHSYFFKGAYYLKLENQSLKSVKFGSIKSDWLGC
Method: (§1) The inhibition by the small molecule compounds against MMP-2/MMP-9 was measured using an assay probing the enzyme proteolytic activity on the substrate DNP-Pro-Leu-Gly-Met-Trp-Ser-Arg (Enzo Life Sciences, USA). All assays were performed in the assay buffer containing 50 mM Tris, 100 mM NaCl. 5 mM CaCl2, and 0.1% Brij 35, pH 7.5. Human proMMP-2 and proMMP-9 were purchased from Sino biological (Germany). The proMMPs were activated by 1 mM APMA in the assay buffer at 37 °C for 2 h. After activation, MMP-2 was diluted to 6.5 nM of final assay concentration, and MMP-9 was diluted by the buffer to reach 10 nM of final assay concentration. In each well, 49 μl of enzyme solution was incubated with 1 μl of compounds of series of concentration (nM-mM in DMSO) at RT for 30 min. 2 μl of the FRET substrate was added right before the measurement at a final concentration of 25 μM. The rate of hydrolysis was monitored by quantifying the emission at 360 nm (ex: 280 nm). The emission was measured with intervals of the 30 s for 30 min with Synergy H1 Plate Reader (Agilent, USA). The measurements were done in triplicate. […] Then, curves were plotted as a function of the concentration of the inhibitor against the relative enzyme activity. Vmax was derived from the detected […] signal for each concentration and logistic fitting was performed to obtain IC50 values using Origin 2019b (OriginLab).

[2] = target: T2, MMP-9 (Homo sapiens, UniProt P14780); assay: MMP-9 inhibition assay (fluorogenic peptide substrate); format: biochemical; parameters: remaining enzyme activity (% of control): scale not given here; settings: for remaining enzyme activity (% of control): MMP-9
T2 construct: purchased Sino Biological 10327-HNAH
Method: as §1

T2 sequence (P14780 107-707 limits assumed): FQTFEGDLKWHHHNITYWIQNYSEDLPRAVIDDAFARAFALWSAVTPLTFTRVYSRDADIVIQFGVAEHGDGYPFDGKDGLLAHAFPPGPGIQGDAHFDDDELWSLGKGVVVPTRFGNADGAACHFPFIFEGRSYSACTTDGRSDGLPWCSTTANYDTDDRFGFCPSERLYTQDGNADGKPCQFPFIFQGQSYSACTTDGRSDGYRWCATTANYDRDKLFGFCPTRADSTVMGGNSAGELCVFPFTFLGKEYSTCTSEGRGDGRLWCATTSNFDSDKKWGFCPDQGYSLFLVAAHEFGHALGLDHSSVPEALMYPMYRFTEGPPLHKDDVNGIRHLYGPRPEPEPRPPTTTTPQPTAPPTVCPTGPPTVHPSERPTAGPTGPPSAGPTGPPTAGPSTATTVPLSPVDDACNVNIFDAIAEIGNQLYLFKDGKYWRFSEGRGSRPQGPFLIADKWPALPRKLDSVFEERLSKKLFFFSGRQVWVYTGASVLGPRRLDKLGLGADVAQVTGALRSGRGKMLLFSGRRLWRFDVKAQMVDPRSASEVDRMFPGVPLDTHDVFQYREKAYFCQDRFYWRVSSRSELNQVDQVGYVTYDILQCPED

| SMILES | remaining activity (%) ([1]; concentration 0.12 µM) | remaining activity (%) ([1]; concentration 0.49 µM) | remaining activity (%) ([1]; concentration 1.95 µM) | remaining activity (%) ([1]; concentration 7.81 µM) | remaining activity (%) ([1]; concentration 31.25 µM) | remaining activity (%) ([1]; concentration 125.00 µM) | remaining activity (%) ([1]; concentration 500.00 µM) | remaining enzyme activity (% of control) ([2]; concentration 0.12 µM) | remaining enzyme activity (% of control) ([2]; concentration 0.49 µM) | remaining enzyme activity (% of control) ([2]; concentration 1.95 µM) | remaining enzyme activity (% of control) ([2]; concentration 7.81 µM) | remaining enzyme activity (% of control) ([2]; concentration 31.25 µM) | remaining enzyme activity (% of control) ([2]; concentration 125.00 µM) | remaining enzyme activity (% of control) ([2]; concentration 500.00 µM) | remaining enzyme activity (% of control) ([2]; concentration 0.08 µM) | remaining enzyme activity (% of control) ([2]; concentration 0.39 µM) | remaining enzyme activity (% of control) ([2]; concentration 9.75 µM) | remaining enzyme activity (% of control) ([2]; concentration 48.76 µM) | remaining enzyme activity (% of control) ([2]; concentration 243.80 µM) | remaining enzyme activity (% of control) ([2]; concentration 1219.00 µM) | further results |
| --- | --- | --- | --- | --- | --- | --- | --- | --- | --- | --- | --- | --- | --- | --- | --- | --- | --- | --- | --- | --- | --- |
| Cn1c(O)nc2cc(C(=O)NCCOCCOCCNC(=O)CNC(=O)NC34CC5CC(CC(C5)C3)C4)cnc21 [66+826 Linker 10] | 101.73 | 104.42 | 99.57 | 96.59 | 91.55 | 88.04 | 85.39 | 99.87 | 98.00 | 97.71 | 90.00 | 87.32 | 80.00 | 70.00 | – | – | – | – | – | – | – |
| Cn1c(O)nc2cc(C(=O)NCCCC/C=C/C(=O)CC(=O)NCC34CC5CC(CC(C5)C3)C4)cnc21 [66+826 Linker 12] | 102.70 | 99.61 | 102.06 | 101.87 | 95.39 | 94.81 | 77.92 | 93.60 | 81.81 | 96.97 | 103.45 | 97.31 | 94.06 | 80.41 | – | – | – | – | – | – | – |
| Cn1c(O)nc2cc(C(=O)NCCSCC(=O)NCC34CC5CC(CC(C5)C3)C4)cnc21 [66+826 Linker 24] | 102.86 | 110.62 | 101.91 | 112.01 | 94.11 | 93.82 | 94.00 | 103.98 | 100.00 | 102.00 | 100.00 | 108.11 | 104.50 | 89.34 | – | – | – | – | – | – | – |
| O=C(CNC(=O)NC12CC3CC(CC(C3)C1)C2)NCCCCCCCCNC(=O)c1cncc(O)c1 [66+828 Linker 4] | – | – | 95.05 | – | – | – | – | – | – | 101.95 | – | – | – | – | 92.81 | 100.82 | 96.31 | 80.00 | 52.30 | 13.62 | remaining activity (%) ([1]; concentration 0.0156 µM): 106.93; remaining activity (%) ([1]; concentration 0.08 µM): 108.75; remaining activity (%) ([1]; concentration 0.39 µM): 91.04; remaining activity (%) ([1]; concentration 9.75 µM): 96.24; remaining activity (%) ([1]; concentration 48.76 µM): 69.88; remaining activity (%) ([1]; concentration 243.80 µM): 65.10; remaining activity (%) ([1]; concentration 1219.00 µM): 54.12 |
| O=C(CNC(=O)NC12CC3CC(CC(C3)C1)C2)NCCOCCOCCNC(=O)c1cncc(O)c1 [66+828 Linker 10] | – | – | – | – | – | – | – | – | – | 97.80 | – | – | – | – | 104.97 | 105.32 | 93.32 | 91.82 | 71.42 | 29.10 | remaining activity (%) ([1]; concentration 0.07 µM): 92.68; remaining activity (%) ([1]; concentration 0.33 µM): 96.27; remaining activity (%) ([1]; concentration 1.67 µM): 86.29; remaining activity (%) ([1]; concentration 8.34 µM): 96.46; remaining activity (%) ([1]; concentration 41.72 µM): 79.41; remaining activity (%) ([1]; concentration 208.60 µM): 61.20; remaining activity (%) ([1]; concentration 1043.00 µM): 17.26; remaining activity (%) ([1]; concentration […]): 100.18; IC50 ([1]; mean ± SE, n.d: not detected, Fig. 5d unit inferred, µM, read-out: IC50): 293 ± 32.6 µM; IC50 ([2]; mean ± SE, n.d: not detected, Fig. 5e prints no unit, µM, read-out: IC50): 521 ± 36.5 µM |
